Reference: ChEMBL document CHEMBL4507280 (2021)

What was measured:
[1] = system: Phosphatidylinositol 4,5-bisphosphate 3-kinase catalytic subunit alpha isoform (Homo sapiens), P42336 [M1043I]; conditions: Compound concentration 1000.0 nM
[2] = biological target: Ephrin type-A receptor 4 (Homo sapiens) (UniProt P54764); conditions: Compound concentration 1000.0 nM
[3] = biological target: Alpha-2C adrenergic receptor (Homo sapiens) (UniProt P18825); conditions: Compound concentration 10.0 uM
[4] = biological target: Insulin-like growth factor 1 receptor (Homo sapiens) (UniProt P08069); conditions: Compound concentration 1000.0 nM
[5] = biological target: LIM domain kinase 1 (Homo sapiens) (UniProt P53667); conditions: Compound concentration 1000.0 nM
[6] = biological target: Serine/threonine-protein kinase TNNI3K (Homo sapiens) (UniProt Q59H18); conditions: Compound concentration 1000.0 nM
[7] = biological target: Cyclin-dependent kinase 9 (Homo sapiens) (UniProt P50750); conditions: Compound concentration 1000.0 nM
[8] = biological target: ALK tyrosine kinase receptor (Homo sapiens) (UniProt Q9UM73); conditions: Compound concentration 1000.0 nM
[9] = biological target: Dual specificity tyrosine-phosphorylation-regulated kinase 2 (Homo sapiens) (UniProt Q92630); conditions: Compound concentration 1000.0 nM
[10] = system: Mast/stem cell growth factor receptor Kit (Homo sapiens), P10721 [D816H]; conditions: Compound concentration 1000.0 nM
[11] = system: Leucine-rich repeat serine/threonine-protein kinase 2 (Homo sapiens), Q5S007 [G2019S]; conditions: Compound concentration 1000.0 nM
[12] = system: Receptor-type tyrosine-protein kinase FLT3 (Homo sapiens), P36888 [D835V]; conditions: Compound concentration 1000.0 nM
[13] = biological target: 5-hydroxytryptamine receptor 2C (Homo sapiens) (UniProt P28335); conditions: Compound concentration 10.0 uM
[14] = system: Epidermal growth factor receptor (Homo sapiens), P00533 [UNDEFINED MUTATION]; conditions: Compound concentration 1000.0 nM
[15] = biological target: Homeodomain-interacting protein kinase 4 (Homo sapiens) (UniProt Q8NE63); conditions: Compound concentration 1000.0 nM
[16] = biological target: Serine/threonine-protein kinase MRCK gamma (Homo sapiens) (UniProt Q6DT37); conditions: Compound concentration 1000.0 nM
[17] = biological target: Calcium/calmodulin-dependent protein kinase type II subunit alpha (Homo sapiens) (UniProt Q9UQM7); conditions: Compound concentration 1000.0 nM
[18] = biological target: Mitogen-activated protein kinase kinase kinase kinase 3 (Homo sapiens) (UniProt Q8IVH8); conditions: Compound concentration 1000.0 nM
[19] = system: ALK tyrosine kinase receptor (Homo sapiens), Q9UM73 [C1156Y]; conditions: Compound concentration 1000.0 nM
[20] = biological target: Serine/threonine-protein kinase D3 (Homo sapiens) (UniProt O94806); conditions: Compound concentration 1000.0 nM
[21] = biological target: Mitogen-activated protein kinase 7 (Homo sapiens) (UniProt Q13164); conditions: Compound concentration 1000.0 nM
[22] = biological target: Serine/threonine-protein kinase Sgk2 (Homo sapiens) (UniProt Q9HBY8); conditions: Compound concentration 1000.0 nM
[23] = biological target: Serine/threonine-protein kinase SBK1 (Homo sapiens) (UniProt Q52WX2); conditions: Compound concentration 1000.0 nM
[24] = system: Hepatocyte growth factor receptor (Homo sapiens), P08581 [M1250T]; conditions: Compound concentration 1000.0 nM
[25] = biological target: Myotonin-protein kinase (Homo sapiens) (UniProt Q09013); conditions: Compound concentration 1000.0 nM
[26] = biological target: G protein-coupled receptor kinase 4 (Homo sapiens) (UniProt P32298); conditions: Compound concentration 1000.0 nM
[27] = biological target: Fibroblast growth factor receptor 4 (Homo sapiens) (UniProt P22455); conditions: Compound concentration 1000.0 nM
[28] = biological target: Serine/threonine-protein kinase PknB (Mycobacterium tuberculosis) (UniProt P9WI81); conditions: Compound concentration 1000.0 nM
[29] = biological target: Serine/threonine-protein kinase WNK1 (Homo sapiens) (UniProt Q9H4A3); conditions: Compound concentration 1000.0 nM
[30] = biological target: Aurora kinase B (Homo sapiens) (UniProt Q96GD4); conditions: Compound concentration 1000.0 nM
[31] = biological target: Serine/threonine-protein kinase N2 (Homo sapiens) (UniProt Q16513); conditions: Compound concentration 1000.0 nM
[32] = biological target: T1, Alpha-1B adrenergic receptor (Homo sapiens) (UniProt P35368); conditions: Compound concentration 10.0 uM
T1 sequence (whole entry): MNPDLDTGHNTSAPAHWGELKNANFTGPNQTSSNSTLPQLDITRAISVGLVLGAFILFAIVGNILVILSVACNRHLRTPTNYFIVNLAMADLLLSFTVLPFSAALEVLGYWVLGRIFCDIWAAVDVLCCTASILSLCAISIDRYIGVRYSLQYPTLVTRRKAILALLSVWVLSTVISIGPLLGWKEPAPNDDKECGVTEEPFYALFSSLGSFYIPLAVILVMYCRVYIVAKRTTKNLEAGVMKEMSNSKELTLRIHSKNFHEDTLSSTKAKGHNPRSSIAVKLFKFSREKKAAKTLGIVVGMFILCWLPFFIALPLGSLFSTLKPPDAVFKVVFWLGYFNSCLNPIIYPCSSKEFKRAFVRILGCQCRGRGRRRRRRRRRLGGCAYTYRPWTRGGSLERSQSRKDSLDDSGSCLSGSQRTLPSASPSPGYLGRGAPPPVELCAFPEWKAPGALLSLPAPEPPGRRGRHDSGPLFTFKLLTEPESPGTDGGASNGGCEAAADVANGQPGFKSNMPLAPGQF

[33] = biological target: Calcium/calmodulin-dependent protein kinase type 1 (Homo sapiens) (UniProt Q14012); conditions: Compound concentration 1000.0 nM
[34] = biological target: Serine/threonine-protein kinase pim-3 (Homo sapiens) (UniProt Q86V86); conditions: Compound concentration 1000.0 nM
[35] = biological target: cAMP-dependent protein kinase catalytic subunit beta (Homo sapiens) (UniProt P22694); conditions: Compound concentration 1000.0 nM
[36] = biological target: Calcium/calmodulin-dependent protein kinase type II subunit delta (Homo sapiens) (UniProt Q13557); conditions: Compound concentration 1000.0 nM
[37] = biological target: Kappa-type opioid receptor (Homo sapiens) (UniProt P41145); conditions: Compound concentration 10.0 uM
[38] = biological target: 5-hydroxytryptamine receptor 5A (Homo sapiens) (UniProt P47898); conditions: Compound concentration 10.0 uM
5-hydroxytryptamine receptor 5A (Homo sapiens), sequence (P47898 whole entry): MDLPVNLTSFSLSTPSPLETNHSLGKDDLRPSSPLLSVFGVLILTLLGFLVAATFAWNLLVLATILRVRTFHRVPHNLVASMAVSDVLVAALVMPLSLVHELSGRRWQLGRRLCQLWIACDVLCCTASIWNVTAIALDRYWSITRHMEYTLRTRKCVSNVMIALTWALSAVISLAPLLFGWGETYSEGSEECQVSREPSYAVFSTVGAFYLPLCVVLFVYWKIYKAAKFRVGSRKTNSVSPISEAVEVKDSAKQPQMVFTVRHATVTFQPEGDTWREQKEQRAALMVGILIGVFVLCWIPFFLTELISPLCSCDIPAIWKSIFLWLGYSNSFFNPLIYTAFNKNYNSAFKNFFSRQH

Calcium/calmodulin-dependent protein kinase type 1 (Homo sapiens), sequence (Q14012 whole entry, looked up): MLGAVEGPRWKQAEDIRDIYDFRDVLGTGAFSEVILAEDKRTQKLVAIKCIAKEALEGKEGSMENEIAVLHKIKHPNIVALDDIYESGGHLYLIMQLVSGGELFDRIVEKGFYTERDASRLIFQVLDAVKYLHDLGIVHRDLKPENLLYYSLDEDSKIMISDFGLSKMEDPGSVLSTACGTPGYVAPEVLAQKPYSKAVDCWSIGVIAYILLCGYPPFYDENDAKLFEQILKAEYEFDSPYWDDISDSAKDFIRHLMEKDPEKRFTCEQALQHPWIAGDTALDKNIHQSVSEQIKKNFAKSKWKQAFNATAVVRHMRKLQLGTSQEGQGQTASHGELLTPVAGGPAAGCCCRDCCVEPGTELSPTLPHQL
Serine/threonine-protein kinase N2 (Homo sapiens), sequence (Q16513 whole entry, looked up): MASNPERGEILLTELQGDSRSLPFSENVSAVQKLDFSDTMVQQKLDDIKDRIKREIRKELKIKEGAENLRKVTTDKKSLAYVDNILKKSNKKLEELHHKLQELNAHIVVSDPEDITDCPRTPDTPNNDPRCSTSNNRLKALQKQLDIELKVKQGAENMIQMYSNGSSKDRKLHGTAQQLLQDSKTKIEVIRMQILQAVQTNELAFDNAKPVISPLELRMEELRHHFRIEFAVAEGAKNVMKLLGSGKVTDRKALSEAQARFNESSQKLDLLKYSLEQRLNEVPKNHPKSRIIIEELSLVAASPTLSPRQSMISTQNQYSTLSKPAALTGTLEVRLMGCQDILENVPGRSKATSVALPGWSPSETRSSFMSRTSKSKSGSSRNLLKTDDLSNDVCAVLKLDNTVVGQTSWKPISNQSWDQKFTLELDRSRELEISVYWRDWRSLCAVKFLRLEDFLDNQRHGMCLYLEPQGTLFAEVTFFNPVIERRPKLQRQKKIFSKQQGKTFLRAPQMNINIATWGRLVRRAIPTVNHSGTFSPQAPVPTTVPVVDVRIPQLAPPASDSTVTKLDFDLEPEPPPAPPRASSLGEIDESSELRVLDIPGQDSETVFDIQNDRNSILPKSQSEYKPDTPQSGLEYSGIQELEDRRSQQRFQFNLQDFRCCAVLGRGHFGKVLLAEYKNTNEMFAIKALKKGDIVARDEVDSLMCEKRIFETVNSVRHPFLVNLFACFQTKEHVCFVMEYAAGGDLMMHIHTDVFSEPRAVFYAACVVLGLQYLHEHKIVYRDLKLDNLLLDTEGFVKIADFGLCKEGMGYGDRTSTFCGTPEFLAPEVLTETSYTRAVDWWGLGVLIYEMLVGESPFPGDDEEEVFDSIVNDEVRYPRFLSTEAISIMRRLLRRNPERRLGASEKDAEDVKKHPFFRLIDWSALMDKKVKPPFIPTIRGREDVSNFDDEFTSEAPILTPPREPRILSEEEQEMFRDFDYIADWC
Fibroblast growth factor receptor 4 (Homo sapiens), sequence (P22455 22-802 limits assumed): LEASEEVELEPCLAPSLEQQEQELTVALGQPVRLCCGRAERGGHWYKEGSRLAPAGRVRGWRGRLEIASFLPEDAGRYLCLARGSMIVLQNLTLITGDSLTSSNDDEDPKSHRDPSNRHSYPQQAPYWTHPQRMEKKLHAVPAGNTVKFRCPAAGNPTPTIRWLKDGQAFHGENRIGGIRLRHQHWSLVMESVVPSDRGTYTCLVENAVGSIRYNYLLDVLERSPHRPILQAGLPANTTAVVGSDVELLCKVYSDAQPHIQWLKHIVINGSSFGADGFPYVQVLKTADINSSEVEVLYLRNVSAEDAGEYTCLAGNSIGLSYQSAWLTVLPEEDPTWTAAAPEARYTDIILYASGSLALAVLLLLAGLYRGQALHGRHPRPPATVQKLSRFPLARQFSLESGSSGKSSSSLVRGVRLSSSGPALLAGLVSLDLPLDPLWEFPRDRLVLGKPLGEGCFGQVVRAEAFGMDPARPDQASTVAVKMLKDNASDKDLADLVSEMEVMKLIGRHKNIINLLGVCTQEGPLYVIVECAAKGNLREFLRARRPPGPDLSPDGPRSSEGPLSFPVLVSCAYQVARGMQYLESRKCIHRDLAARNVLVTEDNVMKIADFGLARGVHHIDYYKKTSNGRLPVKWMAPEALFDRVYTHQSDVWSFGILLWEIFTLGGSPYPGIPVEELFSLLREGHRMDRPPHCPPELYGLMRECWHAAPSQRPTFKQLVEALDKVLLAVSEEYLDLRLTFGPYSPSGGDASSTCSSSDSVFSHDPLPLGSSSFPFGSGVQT
Serine/threonine-protein kinase WNK1 (Homo sapiens), sequence (Q9H4A3 whole entry, looked up): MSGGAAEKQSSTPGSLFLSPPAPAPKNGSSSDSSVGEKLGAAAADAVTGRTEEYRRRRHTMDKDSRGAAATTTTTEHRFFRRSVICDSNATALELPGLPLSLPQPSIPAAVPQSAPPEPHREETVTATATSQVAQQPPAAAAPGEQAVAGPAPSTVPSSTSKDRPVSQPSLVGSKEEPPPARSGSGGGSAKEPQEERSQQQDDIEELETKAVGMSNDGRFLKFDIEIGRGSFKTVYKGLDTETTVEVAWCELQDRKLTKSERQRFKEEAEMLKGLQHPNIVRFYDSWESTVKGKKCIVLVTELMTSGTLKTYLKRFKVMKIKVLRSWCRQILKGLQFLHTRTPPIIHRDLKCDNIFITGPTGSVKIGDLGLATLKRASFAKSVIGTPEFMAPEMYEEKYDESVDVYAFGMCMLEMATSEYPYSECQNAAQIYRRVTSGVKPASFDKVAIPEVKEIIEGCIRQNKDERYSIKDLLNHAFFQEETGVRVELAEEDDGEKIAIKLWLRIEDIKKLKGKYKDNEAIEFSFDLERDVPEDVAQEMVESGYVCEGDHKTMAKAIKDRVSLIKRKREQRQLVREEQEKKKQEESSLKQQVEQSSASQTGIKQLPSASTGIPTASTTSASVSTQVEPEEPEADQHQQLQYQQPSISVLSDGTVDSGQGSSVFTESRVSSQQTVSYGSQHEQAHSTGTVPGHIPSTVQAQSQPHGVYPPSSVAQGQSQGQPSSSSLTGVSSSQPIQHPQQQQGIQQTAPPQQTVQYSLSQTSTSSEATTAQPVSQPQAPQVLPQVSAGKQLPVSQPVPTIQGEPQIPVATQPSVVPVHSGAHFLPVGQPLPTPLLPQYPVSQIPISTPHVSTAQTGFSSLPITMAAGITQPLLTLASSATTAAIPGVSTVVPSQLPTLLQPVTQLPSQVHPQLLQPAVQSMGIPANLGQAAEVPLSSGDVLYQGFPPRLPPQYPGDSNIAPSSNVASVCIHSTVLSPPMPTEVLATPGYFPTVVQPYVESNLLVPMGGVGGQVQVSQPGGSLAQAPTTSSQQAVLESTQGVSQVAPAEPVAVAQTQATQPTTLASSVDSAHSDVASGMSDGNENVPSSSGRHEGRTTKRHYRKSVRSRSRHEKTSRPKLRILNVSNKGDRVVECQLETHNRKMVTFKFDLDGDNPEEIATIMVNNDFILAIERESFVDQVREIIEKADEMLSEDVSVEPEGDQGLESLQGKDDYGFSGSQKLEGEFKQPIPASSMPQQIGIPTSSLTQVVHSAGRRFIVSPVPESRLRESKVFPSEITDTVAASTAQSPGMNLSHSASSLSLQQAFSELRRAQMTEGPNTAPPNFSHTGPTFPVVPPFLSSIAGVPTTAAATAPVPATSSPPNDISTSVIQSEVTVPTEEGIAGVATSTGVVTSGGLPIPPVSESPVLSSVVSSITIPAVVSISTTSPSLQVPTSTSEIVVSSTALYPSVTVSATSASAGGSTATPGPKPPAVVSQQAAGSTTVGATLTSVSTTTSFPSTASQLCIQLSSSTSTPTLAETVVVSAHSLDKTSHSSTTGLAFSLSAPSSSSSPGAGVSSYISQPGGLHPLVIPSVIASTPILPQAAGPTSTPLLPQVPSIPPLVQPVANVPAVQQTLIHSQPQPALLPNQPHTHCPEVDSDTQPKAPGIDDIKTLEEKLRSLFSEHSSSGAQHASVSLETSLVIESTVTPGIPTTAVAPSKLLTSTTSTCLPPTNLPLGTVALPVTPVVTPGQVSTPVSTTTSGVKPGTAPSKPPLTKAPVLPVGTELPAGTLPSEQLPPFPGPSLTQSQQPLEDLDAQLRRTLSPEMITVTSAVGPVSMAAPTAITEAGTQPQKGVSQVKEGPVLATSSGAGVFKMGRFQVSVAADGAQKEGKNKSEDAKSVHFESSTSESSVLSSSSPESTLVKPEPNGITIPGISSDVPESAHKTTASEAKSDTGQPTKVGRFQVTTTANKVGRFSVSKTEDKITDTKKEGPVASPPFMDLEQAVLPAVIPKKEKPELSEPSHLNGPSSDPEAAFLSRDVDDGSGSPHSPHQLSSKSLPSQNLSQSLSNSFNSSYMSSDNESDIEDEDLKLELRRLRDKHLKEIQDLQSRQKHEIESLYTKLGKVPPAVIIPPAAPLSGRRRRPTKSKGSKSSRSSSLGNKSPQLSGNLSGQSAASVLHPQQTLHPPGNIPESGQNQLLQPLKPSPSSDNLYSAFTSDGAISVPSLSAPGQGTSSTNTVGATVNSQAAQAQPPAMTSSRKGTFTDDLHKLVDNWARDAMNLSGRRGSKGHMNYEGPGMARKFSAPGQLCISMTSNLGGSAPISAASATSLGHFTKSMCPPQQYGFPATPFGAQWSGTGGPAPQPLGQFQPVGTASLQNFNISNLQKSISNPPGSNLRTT

CCC(=O)N[C@H]1CC[C@@H](C(=O)N(C)c2ccc(-c3nc4ccccc4o3)cc2)C1 [BI 99179]
inactive: residual activity [1] 100% | residual activity [2] 79% | inhibition [3] -5.31% | residual activity [4] 100% | residual activity [5] 86% | residual activity [6] 100% | residual activity [7] 95% | residual activity [8] 86% | residual activity [9] 87% | residual activity [10] 85% | residual activity [11] 100% | residual activity [12] 73% | inhibition [13] 8.87% | residual activity [14] 78% | residual activity [15] 100% | residual activity [16] 91% | residual activity [17] 94% | residual activity [18] 85% | residual activity [19] 100% | residual activity [20] 100% | residual activity [21] 78% | residual activity [22] 93% | residual activity [23] 94% | residual activity [24] 92% | residual activity [25] 100% | residual activity [26] 100% | residual activity [27] 100% | residual activity [28] 86% | residual activity [29] 100% | residual activity [30] 83% | residual activity [31] 100% | inhibition [32] -6.32% | residual activity [33] 95% | residual activity [34] 100% | residual activity [35] 100% | residual activity [36] 91% | inhibition [37] -6.54% | inhibition [38] -1.85%

CCC(=O)N[C@@H]1CC[C@H](C(=O)N(C)c2ccc(-c3nc4ccccc4o3)cc2)C1 [BI 99990]
inactive: residual activity [1] 100% | residual activity [2] 100% | inhibition [3] -2.55% | residual activity [4] 100% | residual activity [5] 100% | residual activity [6] 99% | residual activity [7] 100% | residual activity [8] 99% | residual activity [9] 100% | residual activity [10] 100% | residual activity [11] 100% | residual activity [12] 92% | inhibition [13] 5.92% | residual activity [14] 62% | residual activity [15] 100% | residual activity [16] 100% | residual activity [17] 100% | residual activity [18] 100% | residual activity [19] 100% | residual activity [20] 100% | residual activity [21] 100% | residual activity [22] 100% | residual activity [23] 100% | residual activity [24] 100% | residual activity [25] 100% | residual activity [26] 100% | residual activity [27] 89% | residual activity [28] 78% | residual activity [29] 100% | residual activity [30] 96% | residual activity [31] 100% | inhibition [32] -6.47% | residual activity [33] 100% | residual activity [34] 96% | residual activity [35] 100% | residual activity [36] 100% | inhibition [37] 20.4% | inhibition [38] -3.5%
